Data set [1] deals with T1, human ether-a-go-go related gene (hERG) channel (Homo sapiens, UniProt Q12809).
T1 construct: expressed in transfected cells; host or cells: HEK293
Put plainly: hERG test (whole-cell patch-clamp, IKr in HEK293 cells). To be noted: inhibition of maximum tail current (IKr), HEK293 cell expressing hERG, compound 1 μM, 10 minutes; 1 µM. The class given is cell-based. The procedure, abridged: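 hERG-expressing HEK293 cells, automated whole-cell patch clamp: hold −80 mV, +50 mV for 2 s, then −50 mV for 2 s to record IKr tail current. Compound in extracellular solution (pH 7.4) for 10 min at room temperature; inhibition of maximum tail current calculated versus pre-application and compared with 0.1% DMSO vehicle.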

Data set [2] deals with AKT phosphorylation. Put plainly: AKT phosphorylation inhibitory activity in MCP-1 stimulated THP-1 cells (sandwich ELISA). In kind it is cell-based, Human. The conditions noted are these: Homo sapiens, compound at 1 μmol/L, MCP-1 stimulation, read-out: AKT phosphorylation inhibition ratio. The essentials: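 THP-1 cells (6.7×10^6/mL in HBSS) were preincubated with compound at 1 μmol/L for 5 min at 37 °C, then stimulated for 60 s with HBSS containing 1.2 μg/mL MCP-1 and lysed. Phospho-Akt Ser473/AKT1 sandwich ELISA was read at A450. % inhibition: no compound = 100% activity, no MCP-1 = 0%.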
On the technique in general: An ELISA detects its analyte on a solid surface through an enzyme-linked reagent.

Data set [3] is described as follows: Metabolic stability test (pooled human liver microsome). To be noted: percentage of test compound remained after 30 minutes, pooled human liver microsome 0.5 mg protein/mL, 1 mmol/L NADPH, 37° C., compound 0.5 μM. In kind it is in vitro ADME. The essentials:
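Pooled human liver microsomes (0.5 mg protein/mL) incubated with compound and 1 mmol/L NADPH at 37° C. in pH 7.4 Tris buffer for 0 or 30 min. Parent quantified by LC/MS/MS after methanol/acetonitrile quench; value is % remaining at 30 min versus 0 min.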
A general note: Liver microsomes are a subcellular fraction often used to study metabolism.

In data set [4] the target is PI3Kγ (Homo sapiens, UniProt P48736). Put plainly: PI3Kγ inhibitory activity (PI3-kinase HTRF assay, inhibition ratio). The class given is biochemical. To be noted: 0.5 h, compound at 10 μmol/L; read-out: PI3Kg Inhibition Ratio % (10 μM). The essentials: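 Compound at 10 μmol/L preincubated 10 min with PI3Kγ and PIP2 substrate, then reacted with ATP for 30 minutes at room temperature; the compound, substrate and ATP figures as printed (40 μmol/L each) are solution concentrations. HTRF 665/620 nm ratio read after 18 hours. Inhibition ratio calculated against no-compound (100%) and no-enzyme (0%) controls.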
Sequence of PI3Kγ (P48736 whole entry, species assumed): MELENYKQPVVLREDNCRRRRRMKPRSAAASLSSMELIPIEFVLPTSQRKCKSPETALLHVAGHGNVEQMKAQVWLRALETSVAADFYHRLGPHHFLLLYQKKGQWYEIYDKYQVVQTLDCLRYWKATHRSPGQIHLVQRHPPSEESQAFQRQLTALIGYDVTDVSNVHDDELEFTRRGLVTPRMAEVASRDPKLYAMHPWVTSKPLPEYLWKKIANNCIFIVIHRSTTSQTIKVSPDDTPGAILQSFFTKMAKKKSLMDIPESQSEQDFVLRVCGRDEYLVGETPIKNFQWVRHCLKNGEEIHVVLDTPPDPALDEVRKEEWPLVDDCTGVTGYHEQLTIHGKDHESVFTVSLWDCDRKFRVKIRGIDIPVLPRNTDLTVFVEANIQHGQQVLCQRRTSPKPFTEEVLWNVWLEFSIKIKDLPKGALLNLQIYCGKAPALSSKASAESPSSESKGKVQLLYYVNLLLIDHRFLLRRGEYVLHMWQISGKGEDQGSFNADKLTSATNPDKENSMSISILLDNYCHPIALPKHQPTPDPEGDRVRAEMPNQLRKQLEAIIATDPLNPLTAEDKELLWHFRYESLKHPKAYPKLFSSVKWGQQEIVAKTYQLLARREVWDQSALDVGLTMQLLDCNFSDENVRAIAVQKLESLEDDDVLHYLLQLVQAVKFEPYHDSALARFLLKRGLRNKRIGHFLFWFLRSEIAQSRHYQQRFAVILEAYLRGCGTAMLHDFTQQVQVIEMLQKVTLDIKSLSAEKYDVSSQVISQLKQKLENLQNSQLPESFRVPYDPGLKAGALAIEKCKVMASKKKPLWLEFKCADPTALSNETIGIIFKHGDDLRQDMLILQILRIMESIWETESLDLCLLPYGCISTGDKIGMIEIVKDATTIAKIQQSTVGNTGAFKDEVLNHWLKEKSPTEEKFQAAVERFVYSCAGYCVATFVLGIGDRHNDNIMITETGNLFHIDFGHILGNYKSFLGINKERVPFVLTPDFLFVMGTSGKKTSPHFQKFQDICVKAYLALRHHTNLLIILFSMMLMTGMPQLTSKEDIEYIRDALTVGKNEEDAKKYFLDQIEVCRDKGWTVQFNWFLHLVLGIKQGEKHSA
Background: Time-resolved FRET reads energy transfer from a long-lived donor to a nearby acceptor.

The structures appear in SMILES notation. Some results are limits rather than exact numbers.

The values that follow come from patent US20120071475A1, “UREA DERIVATIVES HAVING PI3K-INHIBITING ACTIVITY” (SHIONOGI & CO., LTD., priority 2009, published 2012).

T1 sequence (Q12809 whole entry): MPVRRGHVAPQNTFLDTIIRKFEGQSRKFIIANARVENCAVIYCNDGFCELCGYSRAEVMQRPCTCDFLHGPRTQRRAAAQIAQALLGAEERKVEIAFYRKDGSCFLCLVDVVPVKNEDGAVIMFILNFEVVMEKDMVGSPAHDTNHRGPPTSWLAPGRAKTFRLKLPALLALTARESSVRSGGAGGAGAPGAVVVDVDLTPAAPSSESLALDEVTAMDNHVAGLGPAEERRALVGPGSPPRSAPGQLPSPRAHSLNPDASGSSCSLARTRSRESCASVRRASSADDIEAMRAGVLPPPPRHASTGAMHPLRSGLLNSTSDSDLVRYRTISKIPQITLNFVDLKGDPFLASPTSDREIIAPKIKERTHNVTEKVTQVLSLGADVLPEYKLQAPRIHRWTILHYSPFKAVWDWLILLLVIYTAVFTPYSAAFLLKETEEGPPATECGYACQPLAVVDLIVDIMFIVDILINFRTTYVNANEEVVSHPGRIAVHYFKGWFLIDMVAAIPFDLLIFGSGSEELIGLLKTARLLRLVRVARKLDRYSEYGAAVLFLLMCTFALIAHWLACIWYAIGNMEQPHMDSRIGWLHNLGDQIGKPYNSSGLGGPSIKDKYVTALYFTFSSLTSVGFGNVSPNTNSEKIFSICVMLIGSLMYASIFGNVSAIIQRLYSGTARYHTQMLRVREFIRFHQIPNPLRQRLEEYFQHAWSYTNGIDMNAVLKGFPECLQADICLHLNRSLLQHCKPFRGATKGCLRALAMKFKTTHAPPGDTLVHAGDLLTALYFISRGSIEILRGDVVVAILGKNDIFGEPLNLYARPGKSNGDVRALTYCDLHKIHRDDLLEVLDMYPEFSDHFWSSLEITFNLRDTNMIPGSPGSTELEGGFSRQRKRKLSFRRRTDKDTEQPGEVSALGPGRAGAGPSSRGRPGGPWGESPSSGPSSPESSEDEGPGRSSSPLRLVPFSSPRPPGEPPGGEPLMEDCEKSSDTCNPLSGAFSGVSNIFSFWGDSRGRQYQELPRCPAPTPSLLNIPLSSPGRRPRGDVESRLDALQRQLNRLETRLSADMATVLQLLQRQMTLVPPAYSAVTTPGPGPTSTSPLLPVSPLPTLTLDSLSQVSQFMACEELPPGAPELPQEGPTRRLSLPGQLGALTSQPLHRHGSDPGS

With `COc1cc(N2CCc3nc(NC(=O)Nc4ccccc4C(=O)NC(C)C(O)C(F)(F)F)sc3C2)nc(OC)n1` (stereo not shown) [Compound I-138], the “hERG(at 1 μM) % Inhibition” value in data set [1] is reported as 2.8%. Also, the inhibition at 1 µM in data set [2] is at least 95%. Moreover, the “hLMS_ox(at 0.5 μM) %” value in data set [3] is 82.6%. In addition, in data set [4], the inhibition at 10 µM is at least 95%.
